Values of other authors as cited in patent US8889663B2, “Formulation for oral transmucosal administration of lipid-lowering drugs” (priority 2008, dated 2014).

Tests used:
[1] = in vivo
[2] = oral, 20 mg or 40 mg dose

SMILES: CC(C)c1c(C(=O)Nc2ccccc2)c(-c2ccccc2)c(-c2ccc(F)cc2)n1CC[C@@H](O)C[C@@H](O)CC(=O)O [atorvastatin]
- volume of organ and tissue space in which the active principle is distributed [1]: exceeding 600 L

SMILES: CC[C@H](C)C(=O)O[C@H]1C[C@H](O)C=C2C=C[C@H](C)[C@H](CC[C@@H](O)C[C@@H](O)CC(=O)O)[C@H]21 [provastatin]
- average known residual bioavailability [2]: around 17 % of the administered dose
